These results are taken from PubChem BioAssay (NCI).

What all share (test): DTP human tumour cell line panel, 48 h
For test [1], the system named is 786-0 renal.
For test [2], the system named is BT-549 breast.
The test system of test [3] is CAKI-1 renal.
For test [4], the system named is HCC-2998 colon.
In test [5] the test system is HT29 colon.
Test [6] concerns M14 melanoma.
For test [7], the system named is MDA-MB-231 breast.
The test system of test [8] is NCI-H23 lung.
Test [9] has as its system NCI-H460 lung.
The subject of test [10] is OVCAR-3 ovarian.
Test [11] relates to OVCAR-4 ovarian.
For test [12], the system named is PC-3 prostate.
Test [13] concerns RXF 393 renal.
In test [14] the test system is SF-539 CNS.
Test [15] relates to SK-MEL-28 melanoma.
Test [16] has as its system SK-OV-3 ovarian.
For test [17], the system named is SN12C renal.
The subject of test [18] is T-47D breast.
For test [19], the system named is UACC-257 melanoma.
Test [20] concerns UACC-62 melanoma.

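Where inhibition never reached the appropriate level, the endpoint shown equals the highest concentration tested. Otherwise, values were interpolated linearly from a five-concentration, 48-hour dose response in 96-well plates. Definition used: TGI = concentration required for complete inhibition of growth.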

Usually TGI stands for the concentration giving total growth inhibition. A low value points to greater sensitivity of the cells. Consider `COc1ccc(/C=C/C(=O)Oc2ccccc2OC)cc1`, for which the TGI in [1] is more than 67 µM; in test [2], more than 100 µM; in [3], more than 91.1 µM; in test [4] it was 43.3 µM; in test [5], more than 59 µM; in test [6] it was more than 100 µM. The TGI is 18 µM in [7]; more than 100 µM in test [8]; more than 100 µM in test [9]; more than 100 µM in test [10]; more than 60.7 µM in [11]; more than 100 µM in test [12]. The TGI in test [13] is 99.8 µM; in [14], more than 100 µM; in [15], more than 100 µM; in test [16], more than 100 µM; in test [17], 58.2 µM; in test [18], more than 92.2 µM. The TGI is more than 100 µM in test [19] and 97.9 µM in test [20].

Consider `COc1cc(OC)c(C2(c3c(OC(C)C)c(=O)c3=O)SCCCS2)cc1OC`, for which the TGI in test [1], in test [2], in [3], in test [4], in test [5] and in test [6] was more than 100 µM throughout. The TGI in [7], in test [8], in test [9], in test [10], in [11] and in test [12] was more than 100 µM in each case. Further, the concentration for total growth inhibition (TGI) in [13], in [14], in [15], in test [16], in test [17] and in [18] was more than 100 µM throughout. Moreover, the TGI in test [19] and in test [20] was more than 100 µM in each case.

Regarding `O=[N+]([O-])C(C(Cl)=C(Cl)Cl)=C(n1cncn1)n1cncn1`, the TGI in test [1] is 45.4 µM; in [2] it was 36 µM; in test [3] it was 11.4 µM; in test [4] it was 98.1 µM; in test [5], 39.4 µM; in test [6], more than 74.8 µM. In addition, the TGI is 39.3 µM in test [7]; 54.2 µM in test [8]; more than 100 µM in test [9]; 38.4 µM in test [10]; 57 µM in test [11]; more than 100 µM in test [12]. Further, the TGI in [13] is 43.4 µM; in test [14] it was 41.2 µM; in test [15] it was more than 95.9 µM; in [16], more than 100 µM; in test [17], 26.9 µM; in [18], 51 µM. Besides, the TGI is more than 65.7 µM in [19] and more than 100 µM in [20].

`O=C(Nc1ccc2cc3ccccc3cc2c1)c1cc2c(cc1Cl)Sc1nccn1S2(=O)=O`: the TGI in test [1] is 30 µM; in [2] it was more than 100 µM; in test [3] it was more than 100 µM; in [4] it was 95.8 µM; in test [5] it was more than 100 µM; in test [6], more than 100 µM. For the same compound, the TGI in [7] was 60.1 µM; in test [8], more than 100 µM; in test [9] it was more than 100 µM; in [10], more than 100 µM; in test [11], more than 100 µM; in test [12], 52.6 µM. Besides, the TGI in test [13] was more than 100 µM; in [14] it was 33.8 µM; in test [15], more than 100 µM; in test [16] it was more than 100 µM; in test [17], more than 100 µM; in test [18], more than 100 µM. Moreover, the TGI in test [19] and in test [20] was more than 100 µM in each case.

For the compound `N#Cc1c(-c2ccc([N+](=O)[O-])cc2)cc(-c2ccc(Nc3ccnc4cc(Cl)ccc34)cc2)nc1N`, the TGI in test [1] was 3.02 µM; in [2], more than 100 µM; in test [3], 40.4 µM; in test [4], 43.2 µM; in test [5], 8.86 µM; in test [6], 41.9 µM. Also, the total growth inhibition concentration (TGI) is 33.7 µM in test [7]; 65.6 µM in test [8]; more than 73.2 µM in test [9]; 15.8 µM in [10]; 15.2 µM in test [11]; 37.4 µM in [12]. The TGI was 34.9 µM in [13]; 55.4 µM in test [14]; more than 100 µM in test [15]; 52.5 µM in [16]; 17.6 µM in [17]; 11.1 µM in [18]. Besides, the TGI is 62.3 µM in test [19] and more than 64.1 µM in test [20].

Turning to `CN(C)c1ccc(/C=C(\NC(=O)c2ccccc2)C(=O)NC(Cc2c[nH]c3ccccc23)C(=O)O)cc1` (centres undefined), the TGI in [1], in test [2], in [3], in test [4], in test [5] and in test [6] was more than 100 µM throughout. In addition, the TGI in [7], in [8], in test [9], in [10], in test [11] and in test [12] was more than 100 µM throughout. For the same compound, the TGI in test [13], in test [14], in test [15], in test [16], in [17] and in test [18] was more than 100 µM each time. In addition, the TGI in [19] and in test [20] was more than 100 µM in each case.

For `CCOC1CCN(C(=O)c2ccccc2)O1` (centres undefined), the TGI in [1], in [2], in test [3], in test [4], in test [5] and in [6] was more than 10 µM throughout. Besides, the TGI in test [7], in [8], in test [9], in test [10], in [11] and in test [12] was more than 10 µM throughout. Moreover, the TGI in test [13], in test [14], in test [15], in test [16], in [17] and in [18] was more than 10 µM in each case. Further, the TGI in test [19] was more than 10 µM.
